Results on 3 compounds are retold here after article PMC10698194 (Nature Communications, 2023).

For orientation: EC50 means the concentration needed to bring the measured effect to its halfway point. Lower therefore signals an effect from little substance. Broadly, the Emax is the size of the effect at its maximum, as opposed to the concentration needed.

The target in one experiment is T1, human KOR E209A (Homo sapiens, UniProt P41145, E209A).
T1 construct: FLAG; expressed in transfected cells; host or cells: HEK293 / HEK293T, transient
T1 sequence (P41145 whole entry E209A): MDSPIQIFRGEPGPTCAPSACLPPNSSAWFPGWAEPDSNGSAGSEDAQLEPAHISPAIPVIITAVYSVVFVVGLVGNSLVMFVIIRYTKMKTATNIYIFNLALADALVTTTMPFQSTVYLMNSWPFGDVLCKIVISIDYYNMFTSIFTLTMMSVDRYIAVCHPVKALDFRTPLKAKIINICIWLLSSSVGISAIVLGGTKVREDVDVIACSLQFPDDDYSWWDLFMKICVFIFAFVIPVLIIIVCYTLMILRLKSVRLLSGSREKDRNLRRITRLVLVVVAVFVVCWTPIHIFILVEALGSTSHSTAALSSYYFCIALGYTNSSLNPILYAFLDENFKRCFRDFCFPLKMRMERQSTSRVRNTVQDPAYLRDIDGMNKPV
It counts as cell-based. As to conditions: KOR(E209A), Log [drug], individual replicates.

In experiment [1] the target is T2, human KOR E297A (Homo sapiens, UniProt P41145, E297A).
T2 construct: FLAG; expressed in transfected cells; host or cells: HEK293T
T2 sequence (P41145 whole entry E297A): as the sequence (P41145 whole entry E209A) above, with A209E, E297A counted along it
It counts as cell-based. As to conditions: KOR(E297A), Log [drug], individual replicates.

The target of a further experiment is T3, human KOR L309A (Homo sapiens, UniProt P41145, L309A).
T3 construct: FLAG; expressed in transfected cells; host or cells: HEK293T
T3 sequence (P41145 whole entry L309A): as the sequence (P41145 whole entry E209A) above, with A209E, L309A counted along it
It counts as cell-based. As to conditions: KOR(L309A), Log [drug], individual replicates.

Another experiment deals with T4, human KOR D138A (Homo sapiens, UniProt P41145, D138A).
T4 construct: expressed in transfected cells
T4 sequence (P41145 whole entry D138A): as the sequence (P41145 whole entry E209A) above, with D138A, A209E counted along it
Put plainly: cAMP inhibition assay normalized to salvinorin A. The format is cell-based.

Experiment [2] addresses T2, human KOR E297A. Put plainly: BRET β-arrestin-2 biosensor assay. The format is cell-based. As to conditions: KOR(E297A), Log [drug], individual replicates. A general note: BRET reads energy transfer from a luciferase to a nearby fluorophore.
A further experiment concerns the target human KOR (Homo sapiens, UniProt P41145). Briefly: cell-based. Further details: expressed in transfected cells; host or cells: HEK293, transient.
A further experiment has as its target T5, mouse KOR, Gαi2 (Mus musculus, UniProt P33534).
T5 construct: expressed in transfected cells; host or cells: HEK293T (ATCC, CRL-3216), transient
Put plainly: TRUPATH BRET G protein assay, Gαi2. The format is cell-based.

For the next experiment, the target named is T6, human MOR (Homo sapiens, UniProt P35372).
T6 construct: expressed in transfected cells
T6 sequence (P35372 whole entry): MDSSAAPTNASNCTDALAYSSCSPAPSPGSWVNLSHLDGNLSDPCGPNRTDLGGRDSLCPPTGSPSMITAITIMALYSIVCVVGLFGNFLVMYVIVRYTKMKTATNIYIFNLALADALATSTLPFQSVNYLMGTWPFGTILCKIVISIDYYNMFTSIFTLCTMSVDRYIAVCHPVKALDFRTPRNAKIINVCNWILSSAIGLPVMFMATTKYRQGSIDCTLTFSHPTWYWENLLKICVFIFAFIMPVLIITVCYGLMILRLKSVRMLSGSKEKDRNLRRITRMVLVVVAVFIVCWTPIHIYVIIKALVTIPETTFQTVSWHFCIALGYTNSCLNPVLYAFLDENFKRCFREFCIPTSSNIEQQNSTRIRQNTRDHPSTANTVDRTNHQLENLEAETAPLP
Put plainly: [35S]GTPγS binding assay, CHO membranes. It counts as biochemical. Conditions: relative to DAMGO. On the technique in general: GTPγS resists hydrolysis and so accumulates on activated G proteins.

Values joined by “and” are separate entries in the source; they are usually repeats but may differ in a detail not shown here. Equal values may be shown once. Read-outs that look alike come from different tables or passages of the source. Bridge positions count the residues as written; N and C are the ends. Square brackets hold non-standard residues; d marks the D form. Peptide text beside a SMILES is read from it. * marks the point of attachment. X1 = C=CCN1CC[C@]23c4c5ccc(O)c4O[C@H]2[C@H](N*)CC[C@@]3(O)[C@H]1C5

Sequence of human KOR (P41145 whole entry): as the sequence (P41145 whole entry E209A) above, with A209E counted along it
T5 sequence (P33534 whole entry): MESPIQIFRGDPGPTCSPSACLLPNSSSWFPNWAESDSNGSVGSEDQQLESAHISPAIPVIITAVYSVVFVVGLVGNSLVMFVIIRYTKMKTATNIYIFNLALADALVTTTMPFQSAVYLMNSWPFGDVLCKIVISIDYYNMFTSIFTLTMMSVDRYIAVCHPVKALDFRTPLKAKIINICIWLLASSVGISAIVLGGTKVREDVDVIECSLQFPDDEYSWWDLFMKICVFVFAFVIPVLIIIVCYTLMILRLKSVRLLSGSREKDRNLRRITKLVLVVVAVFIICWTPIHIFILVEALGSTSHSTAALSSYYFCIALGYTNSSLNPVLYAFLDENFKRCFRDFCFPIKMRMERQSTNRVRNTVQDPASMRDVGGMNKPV

In the case of `C=CCN1CC[C@]23c4c5ccc(O)c4O[C@H]2[C@H](NC(=O)[C@@H](Cc2ccccc2)NC(=O)[C@@H](NC(=O)[C@@H]2CSCC(=O)N[C@@H](Cc4ccc(O)cc4)C(=O)N[C@@H](C)C(=O)N[C@H](Cc4ccc(O)cc4)C(=O)N[C@@H]([C@@H](C)O)C(=O)N[C@@H]([C@@H](C)O)C(=O)N2)[C@@H](C)O)CC[C@@]3(O)[C@H]1C5` [DNCP-βNalA(1)] ({CH2CO}-YA[dY]TTCT[dF]-X1; thioether N-6), the Gi1-activation was 95.0321 at human KOR E209A (M = -6); 98.4538 and 95.0321 and 92.9731 (2×) at human KOR E209A (M = -7); 93.8915 and 90.4927 at human KOR E209A (M = -9); 95.0144 on human KOR E297A [1] (M = -5); 93.9606 and 93.3336 and 93.3709 at human KOR E297A [1] (M = -6); 92.7066 and 94.3563 on human KOR E297A [1] (M = -7). For the same compound, the Gi1-activation at human KOR E297A [1] (M = -8) was 92.7066 and 93.9606 and 93.6983; on human KOR L309A (M = -5) it was 98.4884 and 94.3563; on human KOR L309A (M = -6), 92.9882 and 93.5382 and 87.9287; on human KOR L309A (M = -7) it was 91.3288 and 89.81 and 94.9619; at human KOR L309A (M = -8), 94.9619 and 94.0882. Besides, the “response at D138A, Figure S26” value was 110.03 and 108.68 and 121.152 and 120.937 and 117.964 and 108.941 and 117.457 at human KOR D138A (Log [ligand] (M) -5); 96.1567 and 103.986 and 100.687 and 108.287 and 104.111 and 103.774 and 93.2795 and 106.739 on human KOR D138A (Log [ligand] (M) -6); 95.0352 and 99.2926 and 97.756 and 110.621 and 103.099 and 111.681 and 84.8048 and 93.7365 at human KOR D138A (Log [ligand] (M) -7); 92.5638 and 91.2347 and 98.8959 and 103.021 and 118.301 and 103.099 and 100.466 and 95.1074 at human KOR D138A (Log [ligand] (M) -8); 68.4109 and 66.6248 and 86.0309 and 72.0259 and 98.5019 and 110.7 and 66.4429 and 85.6772 on human KOR D138A (Log [ligand] (M) -9). The βarrestin2-reruitment on human KOR E297A [2] (M = -5) was 64.952 and 70.3776 and 70.3029; on human KOR E297A [2] (M = -6) it was 64.952 (2×) and 65.8365 and 61.2954 and 65.7763 and 64.7423; at human KOR E297A [2] (M = -7) it was 57.4606 and 53.3486 and 51.3006 and 53.3686 and 55.3202; on human KOR E297A [2] (M = -8), 54.25 and 56.7544 and 54.4026 and 55.3202; on human KOR E297A [2] (M = -9) it was 42.4779 and 34.0491 and 29.508 and 29.5871 and 25.4512 and 32.8461; at human KOR E297A [2] (M = -10), 4.532 and 6.8027 and 4.772.
On human KOR, `CC(C)=CCN1CCC2(C)c3cc(O)ccc3CC1C2C` (centres unmarked) [Pentazocine, pentazocine] had an EC50 of 1.01 µM. Also, the “β-arrestin-2 (Figure 3j)” value at human KOR stood at 38. Also, the Emax at human KOR (HEK293, read-out: Emax β-arrestin-1 recruitment) came out at 38 ± 24%. Further, the “Gαi2, normalized response (single replicate values)” value on mouse KOR, Gαi2 (Log [ligand] (M) -5) is 63.0631 and 33.772 and 78.2944 and 66.7992 and -8.535 and 43.2571 and 15.0067 and 36.1153; at mouse KOR, Gαi2 (Log [ligand] (M) -6), 81.8094 and 43.1452 and 67.7496 and 22.5401 and 66.7992 and 32.8986 (2×) and 41.9735; on mouse KOR, Gαi2 (Log [ligand] (M) -7), 33.772 (2×) and 29.0855 and 9.357 and 40.4321 and 39.4904 and 59.2657 and 49.0034; on mouse KOR, Gαi2 (Log [ligand] (M) -8) it was 36.1153 and 16.1974 and 29.0855 and -23.6023 and 39.4904 and 26.3069 and 33.8403 and 44.3168; at mouse KOR, Gαi2 (Log [ligand] (M) -9), -10.7504 and 16.1974 and 32.6004 and -17.0105 and 12.1816 and 27.2485 and 41.3738 and 15.0258; on mouse KOR, Gαi2 (Log [ligand] (M) -10) it was -1.377 and -15.4369 and -0.06023 (2×) and -7.594 and -5.71 and -13.0937. Also, the “Gαi2, normalized response (single replicate values)” value at mouse KOR, Gαi2 (Log [ligand] (M) -11) is -3.721 and -2.549 and 15.0258 and 1.823 and -26.4273 and -45.2609 and 40.4321 and -15.4369; at mouse KOR, Gαi2 (Log [ligand] (M) -12) it was 20.884 and 5.653 and -14.2653 and 5.59 and 13.1233 and -22.6606 and 37.607 and -1.377. Besides, the “Gαi2 (Figure 3j)” value on mouse KOR, Gαi2 (source data of Figure 3j, U50,488 about 100) came to 42.2346.
On to DAMGO, for which the “Emax (%) MOR” value on human MOR came out at 100%.
